The record followed here is ChEMBL document CHEMBL1201862, “PubChem BioAssay data set” (2004).

Calls of active or inactive are those of the source.

Assay [1] deals with BJ. The assay is described as follows: cytotoxicity toward BJ-TERT fibroblasts, dose response, cell-based, RAS-independent, luminescence (AID 1933). It is filed as functional. As to conditions: Homo sapiens.
Assay [2] can be described thus: control 3'UTR Renilla luciferase suppression, dose response, counter-screen for Shn3 inhibitor project, cell-based, Clone20-Shn3RL, cherry-picked (AID 624133). In kind it is functional. On the technique in general: The purpose of a counterscreen is to sort out artefacts and off-target activity.
Assay [3] addresses T1, Fatty acid synthase (Homo sapiens, UniProt P49327). The assay is described as follows: FAS thioesterase domain inhibitors, dose response, biochemical, endpoint fluorescence intensity, uHTS hits (AID 624327).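 Also: fluorescence from hydrolysis of an O-methyl fluorescein acyl ester substrate by the enzyme.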 In kind it is functional.
Assay [4] concerns BJ. The assay is described as follows: cytotoxicity toward Ras-transformed BJeLR fibroblasts, dose response, cell-based, alamar blue fluorescence, cherrypicked samples (AID 2631).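 Also: confirmatory dose-response assay in RAS-dependent BJ fibroblasts engineered with TERT, LT and ST, with cytotoxicity read by fluorescence.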 In kind it is functional. Particulars: Homo sapiens. On the technique in general: The colour change of resazurin is a common sign of viable cells or microbes.
Assay [5] is described as follows: Luminescence Cell-Based Dose Response HTS to Identify Inhibitors of 5'UTR Stem-Loop Driven Prion Protein mRNA Translation in H4 Neuroglioblastoma Cells. [Related pubchem assays: 1827 (Project Summary), 1813 (Primary HTS)]. In kind it is functional.
Assay [6] can be described thus: inhibitors of firefly luciferase expression or activity, dose response, H4 neuroglioma cells, luminescence (AID 1990). It is filed as functional, cell-based.
In assay [7] the target is Voltage-dependent T-type calcium channel subunit alpha-1H (Homo sapiens, UniProt O95180). In kind it is functional.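 Also: channel activity triggered by adding a high calcium stimulation buffer.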
Assay [8] is described as follows: inhibitors of SNCA 5'UTR-driven reporter translation, confirmation, H4 neuroglioma cells, luminescence (AID 1988). It is filed as functional, cell-based.
Assay [9] in a line: cytotoxicity toward DRD oncogenic fibroblasts, dose response, cell-based, non-viral oncogenic, luminescence (AID 1934). It is filed as functional. As to conditions: Homo sapiens.
Assay [10] deals with BJ. In words: cells. As to conditions: Homo sapiens. It is filed as functional, cell-based.
The next assay deals with Vero. In words: host cell cytotoxicity of antiviral hits, dose response, cytotoxicity control for West Nile virus antiviral project, secondary assay (AID 1650). In kind it is functional. As to conditions: Chlorocebus sabaeus.
A short description of assay [11]: HepG2 cell cytotoxicity, dose response, cytotoxicity control for Shn3 inhibitor project, CellTiter-Glo, cherry-picked (AID 624134). In kind it is functional, cell-based. (Cellular ATP, detected with luciferase, serves as a proxy for viable cell number.)
Assay [12] can be described thus: Shn3 3'UTR reporter inhibitors, dose response, cell-based, Clone20 osteoblasts, firefly luciferase, cherry-picked (AID 624132).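 Also: firefly luciferase luminescence from reporter carrying the Shn3 3'UTR in osteoblasts.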 It is filed as functional.
The target in assay [13] is T1, Fatty acid synthase. In words: FAS thioesterase domain inhibitors, dose response, biochemical, kinetic fluorescence intensity (AID 624326).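 Also: rate of fluorescence rise from hydrolysis of a fluorogenic O-methyl fluorescein ester substrate.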 It is filed as functional.
The test system of assay [14] is BJ. The assay is described as follows: cytotoxicity toward BJ-TERT-LT-ST fibroblasts, dose response, cell-based, RAS-independent, luminescence (AID 1935).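 Also: BJ fibroblasts immortalized with TERT plus LT and ST oncogenes.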 In kind it is functional. Particulars: Homo sapiens.
For assay [15], the target named is Mitogen-activated protein kinase 10 (Homo sapiens, UniProt P53779). In words: Dose response biochemical screening assay for inhibitors of c-Jun N-Terminal Kinase 3 (JNK3). [Related pubchem assays: 746 ].
Mitogen-activated protein kinase 10, sequence (P53779 whole entry): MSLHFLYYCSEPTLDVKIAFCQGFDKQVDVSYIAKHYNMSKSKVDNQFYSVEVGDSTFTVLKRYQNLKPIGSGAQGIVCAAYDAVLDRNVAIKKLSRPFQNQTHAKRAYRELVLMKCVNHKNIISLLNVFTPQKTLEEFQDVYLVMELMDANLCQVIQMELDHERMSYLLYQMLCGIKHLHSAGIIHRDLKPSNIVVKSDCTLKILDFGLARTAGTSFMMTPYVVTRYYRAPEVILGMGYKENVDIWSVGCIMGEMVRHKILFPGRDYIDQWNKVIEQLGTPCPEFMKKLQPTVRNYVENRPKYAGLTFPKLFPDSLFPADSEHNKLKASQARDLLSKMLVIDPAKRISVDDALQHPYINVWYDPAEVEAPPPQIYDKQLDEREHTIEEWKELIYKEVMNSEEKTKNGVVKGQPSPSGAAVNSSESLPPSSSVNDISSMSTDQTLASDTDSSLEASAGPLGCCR
Assay [16] concerns the target T2, Ubiquitin-conjugating enzyme E2 N (Homo sapiens, UniProt P61088).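 Also: Dose-response confirmation in a TR-FRET assay detecting UBC13-driven polyubiquitin chain formation, inhibition measured.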
T2 sequence (P61088 whole entry): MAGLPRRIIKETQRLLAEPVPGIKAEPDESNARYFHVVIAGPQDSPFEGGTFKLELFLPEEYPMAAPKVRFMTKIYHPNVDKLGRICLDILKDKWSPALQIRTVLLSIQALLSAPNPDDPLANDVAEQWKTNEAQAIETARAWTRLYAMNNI
In kind it is functional.

The target of assay [17] is 1-phosphatidylinositol 4,5-bisphosphate phosphodiesterase beta-3 (Homo sapiens, UniProt Q01970). The assay is described as follows: Fluorescence-based biochemical high throughput dose response assay to identify inhibitors of phospholipase C isozymes (PLC-B3).
Assay [18] deals with 1-phosphatidylinositol 4,5-bisphosphate phosphodiesterase gamma-1 (Homo sapiens, UniProt P19174). The assay is described as follows: Counterscreen for inhibitors of phospholipase C isozymes (PLC-B3): Fluorescence-based biochemical high throughput dose response assay to identify inhibitors of phospholipase C isozymes (PLC-gamma1).
1-phosphatidylinositol 4,5-bisphosphate phosphodiesterase gamma-1, sequence (P19174 whole entry): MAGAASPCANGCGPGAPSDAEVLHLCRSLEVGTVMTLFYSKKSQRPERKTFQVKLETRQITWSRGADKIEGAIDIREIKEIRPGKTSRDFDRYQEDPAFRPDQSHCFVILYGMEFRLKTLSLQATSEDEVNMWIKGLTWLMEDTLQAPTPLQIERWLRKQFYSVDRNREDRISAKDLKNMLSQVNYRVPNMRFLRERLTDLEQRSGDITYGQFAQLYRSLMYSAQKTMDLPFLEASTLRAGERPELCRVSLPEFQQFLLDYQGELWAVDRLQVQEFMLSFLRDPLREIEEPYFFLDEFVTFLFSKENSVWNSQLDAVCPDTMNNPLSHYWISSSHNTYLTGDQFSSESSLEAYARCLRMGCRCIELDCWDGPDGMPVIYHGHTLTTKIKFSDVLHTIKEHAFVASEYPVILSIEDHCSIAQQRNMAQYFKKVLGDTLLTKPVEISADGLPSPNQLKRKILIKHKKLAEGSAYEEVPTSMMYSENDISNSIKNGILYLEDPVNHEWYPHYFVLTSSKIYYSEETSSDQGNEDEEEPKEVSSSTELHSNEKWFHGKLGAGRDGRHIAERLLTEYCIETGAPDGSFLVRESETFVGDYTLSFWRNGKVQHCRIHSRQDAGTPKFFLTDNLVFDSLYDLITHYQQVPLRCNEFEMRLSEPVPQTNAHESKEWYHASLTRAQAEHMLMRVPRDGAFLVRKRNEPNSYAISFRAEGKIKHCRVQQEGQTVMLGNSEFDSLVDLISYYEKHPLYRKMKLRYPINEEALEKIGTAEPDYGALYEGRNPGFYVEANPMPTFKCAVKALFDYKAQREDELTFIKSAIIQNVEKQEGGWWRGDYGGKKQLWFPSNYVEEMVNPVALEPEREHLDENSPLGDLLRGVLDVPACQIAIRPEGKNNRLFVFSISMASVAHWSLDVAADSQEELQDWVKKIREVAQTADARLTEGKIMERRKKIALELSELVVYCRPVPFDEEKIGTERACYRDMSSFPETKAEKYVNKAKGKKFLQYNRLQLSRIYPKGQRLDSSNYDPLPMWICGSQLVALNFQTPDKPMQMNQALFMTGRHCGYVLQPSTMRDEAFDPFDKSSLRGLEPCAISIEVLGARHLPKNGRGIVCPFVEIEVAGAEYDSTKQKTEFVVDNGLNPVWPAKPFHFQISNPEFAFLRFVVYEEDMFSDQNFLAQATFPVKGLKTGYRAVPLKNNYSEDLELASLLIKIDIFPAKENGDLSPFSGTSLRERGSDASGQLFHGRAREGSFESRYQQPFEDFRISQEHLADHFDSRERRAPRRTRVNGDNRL
The nature of assay [19]: P. falciparum Dd2 growth inhibitors, dose response, SYBR Green, dry powder samples, set 9 (AID 1159568). It is filed as functional, cell-based.
A short description of assay [20]: cytotoxicity in OVCAR4 cells, dose response, cytotoxicity control for PAX8 inhibitor project, cell-based, plate reader, dry powder, SA11 (AID 743150). It is filed as functional. As to conditions: OVCAR-4.
A short description of assay [21]: PAX2 cell-based inhibition, dose response, selectivity assay for PAX8 inhibitor project, plate reader, dry powder samples (AID 743048).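 Also: HEK293 cells carrying a WT1 promoter luciferase reporter driven by expressed Pax2; potency is for inhibition of Pax2 driven reporter signal.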 In kind it is functional.
A short description of assay [22]: inhibitors of clade B AD8 Env fusion, dose response, cell-based, cherry-pick (AID 652062).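 Also: luciferase signal from cell-cell fusion driven by HIV-1 clade B AD8 Env; potency is for inhibitors of fusion seen as a drop in luminescence.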 In kind it is functional.
A short description of assay [23]: inhibitors of HIV Env-driven cell fusion, dose response, cherry-pick (AID 652057). In kind it is functional, cell-based.
A short description of assay [24]: P. falciparum 3D7-ScDHODH growth inhibitors, dose response, SYBR Green, dry powder samples (AID 1159570).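 Also: parasite growth measured after 72 hours of compound exposure.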 In kind it is functional, cell-based.
The nature of assay [25]: HepG2 cell cytotoxicity, dose response, cytotoxicity control, cherry-picked samples (AID 1159577). It is filed as functional, cell-based.
Assay [26] in a line: P. falciparum Dd2 growth inhibitors, dose response, SYBR Green, cherry-picked samples (AID 1159567). It is filed as functional, cell-based.
Assay [27] is described as follows: ZM109 Env clade C HIV-1 fusion inhibitors, dose response, HeLa effector, CEM target cells, luciferase, cherry-pick (AID 652058). In kind it is functional, cell-based.
A short description of assay [28]: P. falciparum ATP4 D1247Y mutant growth inhibitors, dose response, NITD609-resistant line, SYBR Green, dry powder (AID 1159571).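 Also: parasites synchronized at ring stage by sorbitol before testing.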 In kind it is functional, cell-based.
Assay [29] in a line: P. falciparum Dd2 growth inhibitors, dose response, SYBR Green, dry powder samples (AID 1159566).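 Also: potency for growth inhibition with lower SYBR green DNA signal.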 In kind it is functional, cell-based.
Assay [30] is described as follows: cytotoxicity in COV434 cells, dose response, cytotoxicity control for PAX8 inhibitor project, cell-based, plate reader, dry powder, SA7 (AID 743145). It is filed as functional.
A short description of assay [31]: cytotoxicity dependent on PAX8, dose response, cell-based, plate reader, dry powder (AID 743049). It is filed as functional.
A short description of assay [32]: PAX5 activity inhibitors, dose response, selectivity assay for PAX8 inhibitor project, cell-based, plate reader, dry powder samples (AID 743047).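 Also: HEK293 cells carrying a Pax5 driven CD19 promoter luciferase reporter; potency of inhibitors that lower reporter luminescence.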 It is filed as functional.
Another assay has as its target Paired box protein Pax-8 (Homo sapiens, UniProt Q06710). The assay is described as follows: inhibitors of PAX8-driven TPO luciferase reporter, dose response, RMG-I cells, cherry-pick (AID 687027).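 Also: luciferase reporter driven by Pax8 target thyroperoxidase promoter measured by SteadyGlo luminescence.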 In kind it is functional, cell-based.
The next assay relates to Jurkat. The assay is described as follows: antigen receptor-induced NF-kB inhibitors, dose response, Jurkat, luciferase reporter, luminescence, B- and T-cell (AID 489004).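 Also: NF-kB luciferase reporter Jurkat cells stimulated with PMA plus ionomycin.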 It is filed as functional, cell-based. As to conditions: Homo sapiens.
Assay [33] in a line: cytotoxicity in HEK-293T NF-kB-Luc cells, dose response, cytotoxicity control for B/T-cell NF-kB inhibitor project, cell-based, uHTS hits (AID 489019).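 Also: IC50 reflects cytotoxicity as loss of cell viability.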 In kind it is functional.
The next assay has as its system HT-1080. In words: cytotoxicity in HT1080 fibrosarcoma cells, cell-based, fluorescence readout (AID 620). In kind it is functional. As to conditions: Homo sapiens.

T1 sequence (P49327 whole entry, the tested form may be a part): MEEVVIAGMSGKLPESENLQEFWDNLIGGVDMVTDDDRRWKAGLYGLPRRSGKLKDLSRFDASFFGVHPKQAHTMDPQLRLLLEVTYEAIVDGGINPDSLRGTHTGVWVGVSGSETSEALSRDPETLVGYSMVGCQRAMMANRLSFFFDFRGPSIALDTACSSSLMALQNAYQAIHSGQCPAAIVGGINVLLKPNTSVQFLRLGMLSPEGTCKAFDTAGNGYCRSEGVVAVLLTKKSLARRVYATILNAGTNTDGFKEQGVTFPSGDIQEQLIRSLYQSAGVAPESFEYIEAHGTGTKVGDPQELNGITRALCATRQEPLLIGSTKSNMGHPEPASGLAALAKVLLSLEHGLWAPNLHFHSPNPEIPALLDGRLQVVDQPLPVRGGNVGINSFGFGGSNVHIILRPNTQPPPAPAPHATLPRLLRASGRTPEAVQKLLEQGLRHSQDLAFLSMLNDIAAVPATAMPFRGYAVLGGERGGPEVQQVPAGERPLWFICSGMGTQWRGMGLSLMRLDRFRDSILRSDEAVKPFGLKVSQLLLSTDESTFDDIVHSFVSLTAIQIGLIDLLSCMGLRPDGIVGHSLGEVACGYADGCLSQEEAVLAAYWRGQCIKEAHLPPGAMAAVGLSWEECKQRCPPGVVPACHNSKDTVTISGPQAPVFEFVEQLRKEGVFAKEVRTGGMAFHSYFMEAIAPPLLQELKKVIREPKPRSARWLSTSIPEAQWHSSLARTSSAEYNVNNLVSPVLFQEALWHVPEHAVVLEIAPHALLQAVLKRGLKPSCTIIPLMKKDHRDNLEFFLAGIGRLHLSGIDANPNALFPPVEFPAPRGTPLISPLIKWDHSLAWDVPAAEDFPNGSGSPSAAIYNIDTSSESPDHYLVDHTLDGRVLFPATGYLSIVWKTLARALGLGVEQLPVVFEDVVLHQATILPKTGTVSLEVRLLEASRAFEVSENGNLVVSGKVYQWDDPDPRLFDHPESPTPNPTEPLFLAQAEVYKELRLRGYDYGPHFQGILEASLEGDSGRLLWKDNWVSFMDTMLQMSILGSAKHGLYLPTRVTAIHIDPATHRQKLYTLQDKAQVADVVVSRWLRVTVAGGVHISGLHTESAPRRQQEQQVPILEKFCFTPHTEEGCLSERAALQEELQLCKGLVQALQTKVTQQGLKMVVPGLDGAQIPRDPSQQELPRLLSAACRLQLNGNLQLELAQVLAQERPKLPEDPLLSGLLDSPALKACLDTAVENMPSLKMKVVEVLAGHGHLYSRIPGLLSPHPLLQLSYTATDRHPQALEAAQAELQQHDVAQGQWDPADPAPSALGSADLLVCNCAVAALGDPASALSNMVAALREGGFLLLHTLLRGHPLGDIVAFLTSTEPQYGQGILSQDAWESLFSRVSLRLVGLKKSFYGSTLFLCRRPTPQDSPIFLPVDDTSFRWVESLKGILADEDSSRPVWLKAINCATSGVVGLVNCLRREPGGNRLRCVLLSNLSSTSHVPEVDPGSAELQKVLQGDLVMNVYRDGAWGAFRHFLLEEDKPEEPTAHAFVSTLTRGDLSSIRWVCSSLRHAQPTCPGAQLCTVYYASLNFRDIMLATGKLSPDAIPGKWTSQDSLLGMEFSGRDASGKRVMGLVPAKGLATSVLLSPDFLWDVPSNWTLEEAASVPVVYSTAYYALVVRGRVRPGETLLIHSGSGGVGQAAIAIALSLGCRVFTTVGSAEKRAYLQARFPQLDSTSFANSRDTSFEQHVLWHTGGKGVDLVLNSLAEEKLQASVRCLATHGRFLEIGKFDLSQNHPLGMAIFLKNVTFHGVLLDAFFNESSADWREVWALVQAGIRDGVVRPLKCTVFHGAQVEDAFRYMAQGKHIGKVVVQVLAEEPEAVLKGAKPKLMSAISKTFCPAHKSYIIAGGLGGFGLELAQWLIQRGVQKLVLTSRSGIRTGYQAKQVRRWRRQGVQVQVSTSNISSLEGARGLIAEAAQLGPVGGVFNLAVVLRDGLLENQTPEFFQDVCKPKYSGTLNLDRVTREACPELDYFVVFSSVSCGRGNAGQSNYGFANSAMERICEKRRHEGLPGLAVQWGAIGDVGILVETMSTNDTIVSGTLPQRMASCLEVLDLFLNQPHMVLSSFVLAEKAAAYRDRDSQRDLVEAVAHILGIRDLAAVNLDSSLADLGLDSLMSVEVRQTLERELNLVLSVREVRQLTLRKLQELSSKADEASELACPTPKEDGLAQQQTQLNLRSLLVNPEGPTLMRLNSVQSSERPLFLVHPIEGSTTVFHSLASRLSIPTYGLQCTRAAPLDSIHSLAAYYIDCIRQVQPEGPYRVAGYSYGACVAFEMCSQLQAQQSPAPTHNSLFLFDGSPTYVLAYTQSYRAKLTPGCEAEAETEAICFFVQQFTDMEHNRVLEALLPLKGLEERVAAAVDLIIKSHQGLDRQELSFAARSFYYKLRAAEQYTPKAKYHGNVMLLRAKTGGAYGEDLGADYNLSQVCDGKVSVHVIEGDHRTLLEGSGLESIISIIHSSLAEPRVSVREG
Paired box protein Pax-8, sequence (Q06710 whole entry): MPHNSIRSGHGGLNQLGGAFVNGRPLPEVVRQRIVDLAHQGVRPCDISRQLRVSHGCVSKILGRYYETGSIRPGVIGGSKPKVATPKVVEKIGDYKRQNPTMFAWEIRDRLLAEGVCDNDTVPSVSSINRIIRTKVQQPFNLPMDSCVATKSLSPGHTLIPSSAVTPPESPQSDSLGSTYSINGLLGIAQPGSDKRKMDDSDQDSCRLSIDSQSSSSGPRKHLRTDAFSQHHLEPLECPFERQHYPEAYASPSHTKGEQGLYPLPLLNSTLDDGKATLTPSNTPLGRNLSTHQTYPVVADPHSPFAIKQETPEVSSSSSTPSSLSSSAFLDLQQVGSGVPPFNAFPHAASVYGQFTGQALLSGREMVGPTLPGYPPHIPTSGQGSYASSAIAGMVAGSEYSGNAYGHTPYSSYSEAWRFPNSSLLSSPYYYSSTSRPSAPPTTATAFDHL

In the case of `CCn1cc(C(=O)NCc2ccco2)c(=O)c2cc(S(=O)(=O)N3CC(C)CC(C)C3)ccc21` (stereo not drawn), the EC50 (as a rule, the concentration that produces a half-maximal response) with BJ [1] is > 150 µM (not active); with BJ [4], > 133 µM (inactive); in assay [5], 0.503 µM (active); in [6] it was 9.5 µM (active); in assay [7], 2.49 µM (active); in assay [8], 10.9 µM (active). Besides, the EC50 in [9] is 7.64 µM (active); in the assay with BJ [10] it was 5.24 µM (active); in the assay with BJ [14], > 150 µM (inconclusive). In addition, the AC50 (as a rule, the concentration at which the activity in the assay is half-maximal) in [2] is 1.67 µM (active); in assay [11], 4.32 µM (active); in assay [12], 0.778 µM (active). Further, the results for the IC50 at Fatty acid synthase [3] and at Fatty acid synthase [13] were 4.25 µM (active) and 4.14 µM (active), respectively. The CC50 – broadly, the concentration giving 50% cytotoxicity – in the assay on Vero was 32.1 µM (active).

`CCOC(=O)CSc1nc2ccccc2c(=O)n1CCCCCC(=O)NCc1ccco1`: the values for the IC50 in [15] and in [16] were 43.3 µM (not active) and > 20 µM (inactive), respectively.

Take `COc1ccc(CCN(C)C(=O)CN2C(=O)NC3(CCCc4ccccc43)C2=O)cc1OC` (stereo not drawn): the IC50 in assay [17] and in [18] was > 122 µM (inactive) throughout.

`C[C@@H]1CN([C@@H](C)CO)C(=O)c2cc(NC(=O)Nc3ccc4c(c3)OCO4)ccc2O[C@@H](C)CCCCO[C@H]1CN(C)S(=O)(=O)c1ccccc1`: the half-maximal activity concentration (AC50) in [19] was 4.34 µM (active).

As for `COc1cccc(C#Cc2ccc([C@H]3[C@@H](CO)N(C(=O)C4CCCC4)[C@H]3C#N)cc2)c1`, the AC50 is 37.9 µM (active) in assay [20]; 30.8 µM (active) in assay [21]; 20 µM (active) in assay [22]; 17.8 µM (active) in assay [23]; 0.409 µM (active) in [24]; > 39 µM (inactive) in assay [25]. Besides, the concentration at half-maximal activity (AC50) was 0.997 µM (active) in [26]; 17 µM (active) in assay [27]; 0.454 µM (active) in assay [28]; 0.212 µM (active) in [29]; 0.00447 µM (active) in assay [30]; 5.77 µM (active) in [31]. In addition, the AC50 was 30.1 µM (active) in assay [32] and 3.15 µM (active) at Paired box protein Pax-8.

As to `COc1ccccc1S(=O)(=O)N(C)C[C@@H]1OCc2ccccc2-c2ccccc2C(=O)N([C@H](C)CO)C[C@@H]1C`, the AC50 in [19] was 4.71 µM (active).

Consider `N#Cc1c(NC(=O)CSc2nc[nH]n2)sc2c1CCCC2`, for which the IC50 (as a rule, the concentration needed to halve the response being measured) with Jurkat is 0.64 µM (active); in [33], > 80 µM (inactive). Moreover, the EC50 in the assay with HT-1080 is listed as > 50 µM (not active).
